Test results as given in US20250154525A1, “PLANT VIRUS MOVEMENT PROTEINS AND METHODS OF USING SAME” (Molecular Transfer, Inc., priority 2016, published 2025).

Legend:
[1] = tested on: C2C12 Cells; test: GFP plasmid transfection with DOTMA/DOPE plus surface ligand peptide, fluorescent plate reader (Example 1); format: cell-based, mouse; conditions: DOTMA/DOPE + peptide linked to R12 or K16; EF1Alpha eGFP plasmid; 42 hours
Procedure: (§1) Cells were plated to so that on the day of transfection the cells were 70% confluent in 96 well tissue culture plates. A DOMTA/DOPE Lipid solution (1:1 molar ratio) at 2 mg/mL in water were mixed with an equal volume cell surface ligand containing adhesion peptide, the plant virus movement protein, or peptide derived therefrom, that had the nucleic acid binding moiety RRRRRRRRRRRR (SEQ ID NO:109) or KKKKKKKKKKKKKKKK (SEQ ID NO: 102) covalently linked to the N-terminus, or C-terminus of each peptide during peptide synthesis. Peptides were at 2 mg/mL in water. The DOTMA/DOPE and the solution containing the cell surface ligand containing adhesion peptide, the plant virus movement protein, or peptide derived therefrom, surface ligand peptide the was diluted 1 to 1 (v/v) in water. DOMTA/DOPE/PEPTIDE solutions were added to 0.1 mL of a plasmid DNA solution (EF1Alpha eGFP plasmid) at 10 μg/mL in OptiMEM.
(§2) All solutions were at room temperature. A volume of 0.2 mL of a 10 μg/mL solution of DNA was aliquoted into each well of a non-tissue cultured treated plate. 1-12 μL of transfection reagents were added to DNA solutions respectively. The transfection reagent and DNA solution was mixed by pipetting up and down twice. Transfection complexes were formed for 10 minutes. After 10 minutes, 0.01 or 0.02 mL of the transfection complex was added to cells. HuVEC, HeLa, human adult keratinocytes, human primary adult fibroblast, and A549 cells all respectively received 0.01 mL of the transfection complex. Human skeletal muscle cells, mouse C2C12 cells, and Jurkat, cells received 0.02 mL of the transfection complex. Cells were incubated for 42 hours at 37° C. at 5% CO2. Plates were read on a fluorescent plate reader. Cells were also examined visually under a microscope to assess the extent of transfection (in terms of the percent of cells transfected) with a fluorescent microscope. Other modes of analysis, for example quantification with B-galactocidase or luciferase reports plasmids can also be used.
(§3) Surface ligand that caused increase expression of GFP over the lipid DOTMA with no surface ligand were considered to enhance transfection or had higher % cells transfected were considered to enhance transfection. Peptides that gave greater than 2-fold enhancement are noted in bold and could be further optimized by adding different transfection enhancers or could be used with different cationic lipids or polymers.
(§4) Tables 2-7, below, provide the results of the transfection enhancements with the various cell types, while Table 8 lists the peptides that were determined by visual inspection to enhance the transfection of the denoted cell lines over the lipid DOTMA.

[2] = tested on: HeLa Cells; test: GFP transfection with DOTMA/SEQ ID NO: 72 (fusogenic peptide)/peptide compared with Lipofectamine 2000; format: cell-based
Procedure: as §1, §2
The fusogenic peptide was added to the DOMTA/peptide formulation to achieve a final concentration of 0.1 mg/mL to see if transfection reagents were further enhanced by the addition of a fusogenic peptide and could provide higher transfection efficiency into HeLa cells and expression than the commercially available Lipofectamine 2000.

[3] = tested on: some examined cell types; test: Summary of Example 1: transfection expression and % cells transfected over the no peptide control; format: cell-based; conditions: on some examined cell types
Procedure: as §1, §2, §3

[4] = tested on: NL-1 iPS Cells; test: GFP plasmid transfection with DOTMA/DOPE plus surface ligand peptide, fluorescent plate reader (Example 1); format: cell-based; conditions: DOTMA/DOPE + peptide linked to R12 or K16; EF1Alpha eGFP plasmid; 42 hours
Procedure: as §1, §2, §3, §4

[5] = tested on: Human Fibroblast Cells; test: as above; format: cell-based; conditions: DOTMA/DOPE + peptide linked to R12 or K16; EF1Alpha eGFP plasmid; 42 hours
Procedure: as §1, §2, §3, §4

[6] = tested on: HeLa Cells; test: as above; format: cell-based; conditions: DOTMA/DOPE + peptide linked to R12 or K16; EF1Alpha eGFP plasmid; 42 hours
Procedure: as §1, §2, §3, §4

[7] = tested on: Jurkat Cells; test: as above; format: cell-based; conditions: DOTMA/DOPE + peptide linked to R12 or K16; EF1Alpha eGFP plasmid; 42 hours
Procedure: as §1, §2, §3, §4

[8] = tested on: HuVec Cells; test: as above; format: cell-based; conditions: DOTMA/DOPE + peptide linked to R12 or K16; EF1Alpha eGFP plasmid; 42 hours
Procedure: as §1, §2, §3, §4

[9] = 0.1 μL of DOTMA/SEQ ID NO: 72/Peptide in well of a 96 well plate
[10] = 0.2 μL of DOTMA/SEQ ID NO: 72/Peptide in well of a 96 well plate
[11] = 0.3 μL of DOTMA/SEQ ID NO: 72/Peptide in well of a 96 well plate
[12] = 0.4 μL of DOTMA/SEQ ID NO: 72/Peptide in well of a 96 well plate

| Substance | Relative Fluorescence of Transfection of C2C12 Cells (RF) [1] | Relative Fluorescence DOTMA/SEQ ID NO: 72/Peptide, HeLa Cells (RF) [2, 9] | Relative Fluorescence DOTMA/SEQ ID NO: 72/Peptide, HeLa Cells (RF) [2, 10] | Relative Fluorescence DOTMA/SEQ ID NO: 72/Peptide, HeLa Cells (RF) [2, 11] | Relative Fluorescence DOTMA/SEQ ID NO: 72/Peptide, HeLa Cells (RF) [2, 12] | transfection expression and % cells transfected over the no peptide control [3] | Relative Fluorescence of Transfection of NL-1 iPS Cells (RF) [4] | Relative Fluorescence of Transfection of Human Fibroblast Cells (RF) [5] | Relative Fluorescence of Transfection of HeLa Cells (RF) [6] | Relative Fluorescence of Transfection of Jurkat Cells (RF) [7] | Relative Fluorescence of Transfection of HuVec Cells (RF) [8] |
| --- | --- | --- | --- | --- | --- | --- | --- | --- | --- | --- | --- |
| 348 (HQQDLGTAGSCLRKFSTM) [compound 348] | 8625 | 17413 | 18615 | 16164 | 15054 | increased transfection expression and the % cells transfected | 21645 | 11802 | 22289 | 15585 | 21214 |
| 347 (DLGTAGSCLRKFSTM) [compound 347] | 4457 | 23188 | 21493 | 16814 | 14140 | increased transfection expression and the % cells transfected | 21865 | 9255 | 22527 | 17720 | 20728 |
| 219 (RKRLQVQLSIRT) [compound 219] | 1346 | 12135 | 13841 | 13531 | 11712 | increased transfection expression and the % cells transfected | 5770 | 7389 | 13721 | 10762 | 6237 |
| 344 (KGHRGF) [compound 344] | 1678 | 13315 | 16387 | 12564 | 12511 | increased transfection expression and the % cells transfected | 10895 | 12704 | 14415 | 10160 | 11867 |
| 367 (TDIPPCPHGWISLWK) [compound 367] | 16207 | 10427 | 21411 | 23001 | 17529 | increased transfection expression and the % cells transfected | 17545 | 10036 | 39008 | 4365 | 13354 |
